# Key:
# Assay in all cases: KINOMEscan
# Type in all cases: binding
# Conditions in all cases: read-out: % Ctrl
# [1] = target: T1, MARK2 (Homo sapiens, UniProt Q7KZI7)
# T1 construct: purchased DiscoveRx KINOMEscan
# Summary of the method: (§1)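 Competition binding panel of 442 non-mutant kinases: test compound at 5 and 10 μM competed with an active-site-directed ligand for 1 h with shaking. Bound kinase was eluted with 0.5 μM ligand and quantified by qPCR; %Ctrl = (compound − positive control)/(DMSO − positive control) × 100, lower meaning tighter binding.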
# [2] = target: T2, PIP5K1A (Homo sapiens, UniProt Q99755)
# T2 construct: purchased DiscoveRx KINOMEscan
# Summary of the method: as §1
# [3] = target: T3, RSK1(Kin.Dom.1-N-terminal) (Homo sapiens, UniProt Q15418)
# T3 construct: RSK1(Kin.Dom.1-N-terminal); purchased DiscoveRx KINOMEscan
# Summary of the method: as §1
# [4] = target: T4, MERTK (Homo sapiens, UniProt Q12866)
# T4 construct: purchased DiscoveRx KINOMEscan
# T4 sequence (Q12866 21-999): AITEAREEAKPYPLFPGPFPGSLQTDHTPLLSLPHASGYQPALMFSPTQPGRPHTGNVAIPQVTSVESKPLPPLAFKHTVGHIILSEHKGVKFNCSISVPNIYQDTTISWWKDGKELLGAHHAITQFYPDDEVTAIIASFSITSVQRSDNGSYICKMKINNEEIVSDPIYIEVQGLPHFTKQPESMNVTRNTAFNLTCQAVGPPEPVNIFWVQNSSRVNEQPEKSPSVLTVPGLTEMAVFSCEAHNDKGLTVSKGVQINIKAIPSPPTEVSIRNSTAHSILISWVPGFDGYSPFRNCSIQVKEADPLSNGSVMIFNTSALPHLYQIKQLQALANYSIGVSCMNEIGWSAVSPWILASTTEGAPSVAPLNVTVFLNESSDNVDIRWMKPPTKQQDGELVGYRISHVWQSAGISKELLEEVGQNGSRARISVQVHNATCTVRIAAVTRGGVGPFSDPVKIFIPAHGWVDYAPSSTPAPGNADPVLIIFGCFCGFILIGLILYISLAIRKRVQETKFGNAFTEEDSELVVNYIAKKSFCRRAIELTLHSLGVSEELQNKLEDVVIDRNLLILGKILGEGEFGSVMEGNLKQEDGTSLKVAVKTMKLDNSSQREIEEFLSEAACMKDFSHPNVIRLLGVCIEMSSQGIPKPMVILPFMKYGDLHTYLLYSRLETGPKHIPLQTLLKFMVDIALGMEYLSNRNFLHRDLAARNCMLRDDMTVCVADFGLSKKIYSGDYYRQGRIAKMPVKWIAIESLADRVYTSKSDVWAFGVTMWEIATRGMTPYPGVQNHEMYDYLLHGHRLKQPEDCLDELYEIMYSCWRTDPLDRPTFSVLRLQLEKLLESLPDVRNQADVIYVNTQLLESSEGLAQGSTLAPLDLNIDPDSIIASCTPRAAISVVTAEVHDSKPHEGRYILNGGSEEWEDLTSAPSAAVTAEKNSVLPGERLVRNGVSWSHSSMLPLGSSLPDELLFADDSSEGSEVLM
# Summary of the method: as §1
# [5] = target: T5, MAPKAPK5 (Homo sapiens, UniProt Q8IW41)
# T5 construct: purchased DiscoveRx KINOMEscan
# T5 sequence (Q8IW41 whole entry): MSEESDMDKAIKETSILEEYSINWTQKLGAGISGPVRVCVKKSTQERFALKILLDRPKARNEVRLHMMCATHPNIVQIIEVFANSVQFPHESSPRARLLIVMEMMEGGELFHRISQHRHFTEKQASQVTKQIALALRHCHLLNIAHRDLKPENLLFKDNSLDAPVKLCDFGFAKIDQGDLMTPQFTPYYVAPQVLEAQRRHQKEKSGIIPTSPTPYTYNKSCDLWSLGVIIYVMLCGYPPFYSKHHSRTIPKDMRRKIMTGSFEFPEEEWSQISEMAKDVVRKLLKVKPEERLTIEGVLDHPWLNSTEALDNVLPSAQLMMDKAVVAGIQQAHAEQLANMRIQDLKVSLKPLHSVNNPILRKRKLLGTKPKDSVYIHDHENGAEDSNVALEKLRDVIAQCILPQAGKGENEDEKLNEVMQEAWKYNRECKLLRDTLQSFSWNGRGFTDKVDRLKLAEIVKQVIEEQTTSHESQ
# Summary of the method: as §1
# [6] = target: T6, LKB1 (Homo sapiens, UniProt Q15831)
# T6 construct: purchased DiscoveRx KINOMEscan
# T6 sequence (Q15831 whole entry): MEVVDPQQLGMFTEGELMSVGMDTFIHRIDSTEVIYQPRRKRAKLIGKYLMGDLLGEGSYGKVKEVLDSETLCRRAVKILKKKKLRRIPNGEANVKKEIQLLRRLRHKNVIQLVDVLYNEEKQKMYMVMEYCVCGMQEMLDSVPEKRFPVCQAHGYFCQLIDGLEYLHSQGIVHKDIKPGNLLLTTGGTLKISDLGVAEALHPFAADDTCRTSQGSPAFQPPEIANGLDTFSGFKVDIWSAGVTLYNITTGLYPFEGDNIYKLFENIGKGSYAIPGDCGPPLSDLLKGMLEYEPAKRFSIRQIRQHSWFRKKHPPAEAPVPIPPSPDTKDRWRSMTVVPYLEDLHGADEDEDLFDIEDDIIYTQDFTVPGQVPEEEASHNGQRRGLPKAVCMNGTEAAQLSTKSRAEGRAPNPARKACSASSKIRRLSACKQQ
# Summary of the method: as §1
# [7] = target: T7, MUSK (Homo sapiens, UniProt O15146)
# T7 construct: purchased DiscoveRx KINOMEscan
# Summary of the method: as §1
# [8] = target: RPS6KA5(Kin.Dom.2-C-terminal) (Homo sapiens, UniProt O75582)
# Summary of the method: as §1
# [9] = target: T8, PIP5K2C (Homo sapiens, UniProt Q8TBX8)
# T8 construct: purchased DiscoveRx KINOMEscan
# Summary of the method: as §1
# [10] = target: T9, MET (Homo sapiens, UniProt P08581)
# T9 construct: purchased DiscoveRx KINOMEscan
# Summary of the method: as §1
# [11] = target: T10, PIM1 (Homo sapiens, UniProt P11309)
# T10 construct: purchased DiscoveRx KINOMEscan
# T10 sequence (P11309 whole entry): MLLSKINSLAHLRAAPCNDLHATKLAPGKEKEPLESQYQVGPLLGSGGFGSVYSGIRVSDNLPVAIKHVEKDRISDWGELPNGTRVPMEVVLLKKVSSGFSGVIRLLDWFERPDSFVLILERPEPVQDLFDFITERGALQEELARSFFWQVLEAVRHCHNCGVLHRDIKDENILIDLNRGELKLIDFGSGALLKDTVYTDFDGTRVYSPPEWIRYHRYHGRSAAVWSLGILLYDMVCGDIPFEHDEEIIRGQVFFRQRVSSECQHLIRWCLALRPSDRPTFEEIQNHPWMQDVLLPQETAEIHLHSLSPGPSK
# Summary of the method: as §1
# [12] = target: T11, PAK1 (Homo sapiens, UniProt Q13153)
# T11 construct: purchased DiscoveRx KINOMEscan
# Summary of the method: as §1
# [13] = target: T12, PFCDPK1(P.falciparum) (Plasmodium falciparum, UniProt P62344)
# T12 construct: purchased DiscoveRx KINOMEscan
# Summary of the method: as §1
# [14] = target: T13, ACVR2B (Homo sapiens, UniProt Q13705)
# T13 construct: purchased DiscoveRx KINOMEscan
# Summary of the method: as §1
# [15] = target: T14, ARK5 (Homo sapiens, UniProt O60285)
# T14 construct: purchased DiscoveRx KINOMEscan
# Summary of the method: as §1
# [16] = target: T15, CDC2L1 (Homo sapiens, UniProt P21127)
# T15 construct: purchased DiscoveRx KINOMEscan
# Summary of the method: as §1
# [17] = target: T16, MST1 (Homo sapiens, UniProt Q13043)
# T16 construct: purchased DiscoveRx KINOMEscan
# Summary of the method: as §1
# [18] = target: T17, PRKCD (Homo sapiens, UniProt Q05655)
# T17 construct: purchased DiscoveRx KINOMEscan
# Summary of the method: as §1
# [19] = target: T18, PIK3CG (Homo sapiens, UniProt P48736)
# T18 construct: purchased DiscoveRx KINOMEscan
# Summary of the method: as §1
# [20] = target: T19, PLK2 (Homo sapiens, UniProt Q9NYY3)
# T19 construct: purchased DiscoveRx KINOMEscan
# Summary of the method: as §1
# [21] = target: T20, ERBB2 (Homo sapiens, UniProt P04626)
# T20 construct: purchased DiscoveRx KINOMEscan
# Summary of the method: as §1
# [22] = target: T21, HIPK2 (Homo sapiens, UniProt Q9H2X6)
# T21 construct: purchased DiscoveRx KINOMEscan
# T21 sequence (Q9H2X6 whole entry): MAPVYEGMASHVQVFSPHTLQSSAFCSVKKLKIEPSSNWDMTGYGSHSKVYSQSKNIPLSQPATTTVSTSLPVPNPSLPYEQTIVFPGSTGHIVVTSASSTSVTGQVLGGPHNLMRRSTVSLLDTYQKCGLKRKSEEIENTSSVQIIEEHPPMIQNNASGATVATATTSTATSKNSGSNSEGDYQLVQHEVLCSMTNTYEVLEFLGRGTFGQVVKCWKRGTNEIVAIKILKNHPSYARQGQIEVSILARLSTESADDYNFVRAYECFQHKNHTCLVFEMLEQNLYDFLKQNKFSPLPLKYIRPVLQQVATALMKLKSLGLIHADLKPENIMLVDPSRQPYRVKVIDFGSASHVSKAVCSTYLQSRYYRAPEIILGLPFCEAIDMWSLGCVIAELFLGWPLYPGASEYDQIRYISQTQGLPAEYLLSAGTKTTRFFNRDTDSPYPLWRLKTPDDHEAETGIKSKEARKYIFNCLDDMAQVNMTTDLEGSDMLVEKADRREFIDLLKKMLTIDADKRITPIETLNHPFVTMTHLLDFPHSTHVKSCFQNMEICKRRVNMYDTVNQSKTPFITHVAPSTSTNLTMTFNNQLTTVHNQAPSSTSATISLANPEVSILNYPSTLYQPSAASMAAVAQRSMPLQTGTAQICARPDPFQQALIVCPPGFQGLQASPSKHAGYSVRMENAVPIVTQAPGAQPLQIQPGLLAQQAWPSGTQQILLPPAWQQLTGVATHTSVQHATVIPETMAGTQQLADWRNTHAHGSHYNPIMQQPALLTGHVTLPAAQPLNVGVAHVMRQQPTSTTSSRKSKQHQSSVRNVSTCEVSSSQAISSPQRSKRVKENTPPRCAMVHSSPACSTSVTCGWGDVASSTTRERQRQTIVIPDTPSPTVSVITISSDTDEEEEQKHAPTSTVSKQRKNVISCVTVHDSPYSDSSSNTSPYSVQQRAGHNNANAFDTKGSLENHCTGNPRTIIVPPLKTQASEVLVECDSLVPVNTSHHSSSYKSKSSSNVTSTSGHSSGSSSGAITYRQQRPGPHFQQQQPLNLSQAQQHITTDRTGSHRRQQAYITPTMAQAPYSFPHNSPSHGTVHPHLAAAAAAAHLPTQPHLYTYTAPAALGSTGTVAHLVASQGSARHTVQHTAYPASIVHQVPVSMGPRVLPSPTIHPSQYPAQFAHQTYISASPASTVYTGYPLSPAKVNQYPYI
# Summary of the method: as §1
# [23] = target: T22, ULK2 (Homo sapiens, UniProt Q8IYT8)
# T22 construct: purchased DiscoveRx KINOMEscan
# Summary of the method: as §1
# [24] = target: T23, MAP3K15 (Homo sapiens, UniProt Q6ZN16)
# T23 construct: purchased DiscoveRx KINOMEscan
# Summary of the method: as §1
# [25] = target: T24, RSK3(Kin.Dom.1-N-terminal) (Homo sapiens, UniProt Q15349)
# T24 construct: RSK3(Kin.Dom.1-N-terminal); purchased DiscoveRx KINOMEscan
# T24 sequence (Q15349 1-388 limits assumed): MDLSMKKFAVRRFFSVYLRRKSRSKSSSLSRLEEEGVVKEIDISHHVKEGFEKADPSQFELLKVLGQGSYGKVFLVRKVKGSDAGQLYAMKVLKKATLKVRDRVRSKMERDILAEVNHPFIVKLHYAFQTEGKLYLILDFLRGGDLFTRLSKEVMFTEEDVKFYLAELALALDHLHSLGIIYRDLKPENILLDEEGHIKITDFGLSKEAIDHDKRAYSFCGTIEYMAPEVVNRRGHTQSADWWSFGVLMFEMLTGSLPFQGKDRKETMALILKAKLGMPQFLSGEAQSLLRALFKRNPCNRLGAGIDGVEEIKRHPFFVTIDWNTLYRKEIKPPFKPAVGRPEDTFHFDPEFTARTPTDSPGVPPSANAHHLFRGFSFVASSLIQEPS
# Summary of the method: as §1
# [26] = target: T25, MST3 (Homo sapiens, UniProt Q9Y6E0)
# T25 construct: purchased DiscoveRx KINOMEscan
# T25 sequence (Q9Y6E0 whole entry): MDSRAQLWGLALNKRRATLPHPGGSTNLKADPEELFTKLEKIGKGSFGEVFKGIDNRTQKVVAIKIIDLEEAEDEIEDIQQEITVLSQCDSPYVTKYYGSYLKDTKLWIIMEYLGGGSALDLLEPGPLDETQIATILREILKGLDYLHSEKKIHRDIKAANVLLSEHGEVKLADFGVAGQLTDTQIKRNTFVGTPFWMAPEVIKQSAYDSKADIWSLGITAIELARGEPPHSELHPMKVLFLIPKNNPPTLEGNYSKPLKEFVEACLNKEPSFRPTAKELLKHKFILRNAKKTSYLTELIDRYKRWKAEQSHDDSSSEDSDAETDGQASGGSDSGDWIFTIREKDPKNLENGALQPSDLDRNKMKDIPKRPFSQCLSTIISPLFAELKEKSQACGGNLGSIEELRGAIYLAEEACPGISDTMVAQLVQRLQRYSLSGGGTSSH
# Summary of the method: as §1
# [27] = target: T26, MAP3K2 (Homo sapiens, UniProt Q9Y2U5)
# T26 construct: purchased DiscoveRx KINOMEscan
# Summary of the method: as §1
# [28] = target: T27, AMPK-alpha1 (Homo sapiens, UniProt Q13131)
# T27 construct: purchased DiscoveRx KINOMEscan
# Summary of the method: as §1
# [29] = target: T28, DDR1 (Homo sapiens, UniProt Q08345)
# T28 construct: purchased DiscoveRx KINOMEscan
# Summary of the method: as §1
# T1 sequence (Q7KZI7 whole entry): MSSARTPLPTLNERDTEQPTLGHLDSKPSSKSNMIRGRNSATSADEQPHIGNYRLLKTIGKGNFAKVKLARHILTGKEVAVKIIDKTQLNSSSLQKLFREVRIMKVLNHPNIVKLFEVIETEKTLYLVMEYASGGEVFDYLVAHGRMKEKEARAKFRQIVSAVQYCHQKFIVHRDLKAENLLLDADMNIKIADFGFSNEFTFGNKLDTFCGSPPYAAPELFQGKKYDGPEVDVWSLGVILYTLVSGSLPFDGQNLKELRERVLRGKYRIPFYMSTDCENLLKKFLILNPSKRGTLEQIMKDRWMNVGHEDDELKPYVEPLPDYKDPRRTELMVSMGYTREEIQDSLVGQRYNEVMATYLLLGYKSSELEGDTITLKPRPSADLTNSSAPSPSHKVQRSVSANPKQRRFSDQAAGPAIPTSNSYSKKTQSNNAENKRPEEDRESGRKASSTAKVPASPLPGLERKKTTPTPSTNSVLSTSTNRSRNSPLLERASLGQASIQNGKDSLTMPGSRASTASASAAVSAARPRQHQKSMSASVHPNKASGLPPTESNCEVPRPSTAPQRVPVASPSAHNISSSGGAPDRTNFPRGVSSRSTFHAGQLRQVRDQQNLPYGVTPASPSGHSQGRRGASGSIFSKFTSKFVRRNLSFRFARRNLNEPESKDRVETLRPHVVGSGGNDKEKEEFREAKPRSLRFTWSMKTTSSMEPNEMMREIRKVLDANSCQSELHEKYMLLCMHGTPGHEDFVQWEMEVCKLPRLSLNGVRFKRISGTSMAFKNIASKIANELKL
structure (smiles),measurement,setting,value
"Cc1ccc(C2=Nc3cccnc3S(=O)(=O)c3ccccc32)cc1 [TBPT, 6-(p-tolyl)benzo[f] pyrido[2,3-b][1,4] thiazepine 11,11-dioxide]",remaining binding at 5 µM,[1]; 5 μM,86%
same,remaining binding at 10 µM,[1]; 10 μM,84%
same,remaining binding at 5 µM,[2]; 5 μM,98%
same,remaining binding at 10 µM,[2]; 10 μM,100%
same,remaining binding at 5 µM,[3]; 5 μM,100%
same,remaining binding at 10 µM,[3]; 10 μM,74%
same,remaining binding at 5 µM,[4]; 5 μM,100%
same,remaining binding at 10 µM,[4]; 10 μM,80%
same,remaining binding at 5 µM,[5]; 5 μM,100%
same,remaining binding at 10 µM,[5]; 10 μM,88%
same,remaining binding at 5 µM,[6]; 5 μM,100%
same,remaining binding at 10 µM,[6]; 10 μM,89%
same,remaining binding at 5 µM,[7]; 5 μM,100%
same,remaining binding at 10 µM,[7]; 10 μM,100%
same,remaining binding at 5 µM,[8]; 5 μM,100%
same,remaining binding at 10 µM,[8]; 10 μM,93%
same,remaining binding at 5 µM,[9]; 5 μM,100%
same,remaining binding at 10 µM,[9]; 10 μM,100%
same,remaining binding at 5 µM,[10]; 5 μM,100%
same,remaining binding at 10 µM,[10]; 10 μM,92%
same,remaining binding at 5 µM,[11]; 5 μM,91%
same,remaining binding at 10 µM,[11]; 10 μM,90%
same,remaining binding at 5 µM,[12]; 5 μM,81%
same,remaining binding at 10 µM,[12]; 10 μM,92%
same,remaining binding at 5 µM,[13]; 5 μM,100%
same,remaining binding at 10 µM,[13]; 10 μM,100%
same,remaining binding at 5 µM,[14]; 5 μM,87%
same,remaining binding at 10 µM,[14]; 10 μM,82%
same,remaining binding at 5 µM,[15]; 5 μM,100%
same,remaining binding at 10 µM,[15]; 10 μM,100%
same,remaining binding at 5 µM,[16]; 5 μM,99%
same,remaining binding at 10 µM,[16]; 10 μM,100%
same,remaining binding at 5 µM,[17]; 5 μM,93%
same,remaining binding at 10 µM,[17]; 10 μM,100%
same,remaining binding at 5 µM,[18]; 5 μM,72%
same,remaining binding at 10 µM,[18]; 10 μM,100%
same,remaining binding at 5 µM,[19]; 5 μM,89%
same,remaining binding at 10 µM,[19]; 10 μM,80%
same,remaining binding at 5 µM,[20]; 5 μM,100%
same,remaining binding at 10 µM,[20]; 10 μM,83%
same,remaining binding at 5 µM,[21]; 5 μM,100%
same,remaining binding at 10 µM,[21]; 10 μM,100%
same,remaining binding at 5 µM,[22]; 5 μM,100%
same,remaining binding at 10 µM,[22]; 10 μM,100%
same,remaining binding at 5 µM,[23]; 5 μM,91%
same,remaining binding at 10 µM,[23]; 10 μM,92%
same,remaining binding at 5 µM,[24]; 5 μM,100%
same,remaining binding at 10 µM,[24]; 10 μM,100%
same,remaining binding at 5 µM,[25]; 5 μM,100%
same,remaining binding at 10 µM,[25]; 10 μM,82%
same,remaining binding at 5 µM,[26]; 5 μM,95%
same,remaining binding at 10 µM,[26]; 10 μM,96%
same,remaining binding at 5 µM,[27]; 5 μM,82%
same,remaining binding at 10 µM,[27]; 10 μM,100%
same,remaining binding at 5 µM,[28]; 5 μM,100%
same,remaining binding at 10 µM,[28]; 10 μM,100%
same,remaining binding at 5 µM,[29]; 5 μM,100%
same,remaining binding at 10 µM,[29]; 10 μM,92%
